# Measured values taken from patent US20080039422A1, “Vitamin B12-Containing Compositions and Methods of Use” (Transition Therapeutics Inc., priority 2004, published 2008).
# Tests used:
# [1] = Methylcobalamin-containing solutions; type: physicochemical
# Experimental: A variety of solutions containing methylcobalamin (Me-Cbl) were tested. In one series of experiments, solutions containing ethanol, propylene glycol, or both ethanol and propylene glycol were challenged with 20 mg/ml Me-Cbl. In another series of experiments, the same solutions were challenged with 50 mg/ml Me-Cbl. The conditions were the same as those described for CN-Cbl. In both series, the excipients included: (a) 15% ethanol; (b) 20% ethanol; (c) 20% propylene glycol; (d) 40% propylene glycol; (e) 15% ethanol and 20% propylene glycol; and (f) 20% ethanol and 40% propylene glycol. Following suitable dilution, the absorbance at A340 was measured on Day 0, Day 1, and Day 2 (Table 7).
# [2] = Methylcobalamin-containing solutions; type: physicochemical; remark: listed apart in the source
structure (smiles),measurement,setting,value
"C/C1=C2/[N-][C@H]([C@H](CC(N)=O)[C@@]2(C)CCC(=O)NC[C@H](C)OP(=O)([O-])O[C@H]2[C@@H](O)[C@@H](n3cnc4cc(C)c(C)cc43)O[C@@H]2CO)[C@]2(C)N=C(/C(C)=C3N=C(/C=C4N=C1[C@@H](CCC(N)=O)C\4(C)C)[C@@H](CCC(N)=O)[C@]\3(C)CC(N)=O)[C@@H](CCC(N)=O)[C@]2(C)CC(N)=O.[CH3-].[Co+3] [Me-Cbl, methylcobalamin]",Conc of Me-Cbl,"[1]; challenge 20 mg/mL, ethanol 0%, PG 20%, Day 0",23610 µg/mL
same,Conc of Me-Cbl,"[1]; challenge 20 mg/mL, ethanol 0%, PG 20%, Day 0 reading",17560 µM
same,Conc of Me-Cbl,"[1]; challenge 20 mg/mL, ethanol 0%, PG 20%, Day 1",24020 µg/mL
same,Conc of Me-Cbl,"[1]; challenge 20 mg/mL, ethanol 0%, PG 40%, Day 0 reading",17800 µM
same,Conc of Me-Cbl,"[1]; challenge 20 mg/mL, ethanol 20%, PG 40%, Day 0",22800 µg/mL
same,Conc of Me-Cbl,"[1]; challenge 50 mg/mL, ethanol 20%, PG 0%, Day 1",10470 µg/mL
same,Conc of Me-Cbl,"[1]; challenge 50 mg/mL, ethanol 20%, PG 40%, Day 0",57620 µg/mL
same,Conc of Me-Cbl,"[1]; challenge 50 mg/mL, ethanol 20%, PG 40%, Day 0 reading",42860 µM
same,Conc of Me-Cbl,"[2]; challenge 20 mg/mL, ethanol 0%, PG 0%, Day 0",17180 µg/mL
same,Conc of Me-Cbl,"[2]; challenge 20 mg/mL, ethanol 0%, PG 0%, Day 0 reading",12780 µM
same,Conc of Me-Cbl,"[2]; challenge 20 mg/mL, ethanol 0%, PG 0%, Day 1",14030 µg/mL
same,Conc of Me-Cbl,"[2]; challenge 20 mg/mL, ethanol 0%, PG 0%, Day 3",13180 µg/mL
same,Conc of Me-Cbl,"[2]; challenge 20 mg/mL, ethanol 0%, PG 20%, Day 3",23370 µg/mL
same,Conc of Me-Cbl,"[2]; challenge 20 mg/mL, ethanol 0%, PG 40%, Day 0",23940 µg/mL
same,Conc of Me-Cbl,"[2]; challenge 20 mg/mL, ethanol 0%, PG 40%, Day 1",24340 µg/mL
same,Conc of Me-Cbl,"[2]; challenge 20 mg/mL, ethanol 0%, PG 40%, Day 3",24500 µg/mL
same,Conc of Me-Cbl,"[2]; challenge 20 mg/mL, ethanol 15%, PG 0%, Day 0",22800 µg/mL
same,Conc of Me-Cbl,"[2]; challenge 20 mg/mL, ethanol 15%, PG 0%, Day 0 reading",16960 µM
same,Conc of Me-Cbl,"[2]; challenge 20 mg/mL, ethanol 15%, PG 0%, Day 1",12530 µg/mL
same,Conc of Me-Cbl,"[2]; challenge 20 mg/mL, ethanol 15%, PG 0%, Day 3",11120 µg/mL
same,Conc of Me-Cbl,"[2]; challenge 20 mg/mL, ethanol 15%, PG 20%, Day 0",22720 µg/mL
same,Conc of Me-Cbl,"[2]; challenge 20 mg/mL, ethanol 15%, PG 20%, Day 0 reading",16900 µM
same,Conc of Me-Cbl,"[2]; challenge 20 mg/mL, ethanol 15%, PG 20%, Day 1",23450 µg/mL
same,Conc of Me-Cbl,"[2]; challenge 20 mg/mL, ethanol 15%, PG 20%, Day 3",21910 µg/mL
same,Conc of Me-Cbl,"[2]; challenge 20 mg/mL, ethanol 20%, PG 0%, Day 0",23130 µg/mL
same,Conc of Me-Cbl,"[2]; challenge 20 mg/mL, ethanol 20%, PG 0%, Day 0 reading",17200 µM
same,Conc of Me-Cbl,"[2]; challenge 20 mg/mL, ethanol 20%, PG 0%, Day 1",9180 µg/mL
same,Conc of Me-Cbl,"[2]; challenge 20 mg/mL, ethanol 20%, PG 0%, Day 3",9180 µg/mL
same,Conc of Me-Cbl,"[2]; challenge 20 mg/mL, ethanol 20%, PG 40%, Day 0 reading",16960 µM
same,Conc of Me-Cbl,"[2]; challenge 20 mg/mL, ethanol 20%, PG 40%, Day 1",23860 µg/mL
same,Conc of Me-Cbl,"[2]; challenge 20 mg/mL, ethanol 20%, PG 40%, Day 3",24100 µg/mL
same,Conc of Me-Cbl,"[2]; challenge 50 mg/mL, ethanol 0%, PG 0%, Day 0",12660 µg/mL
same,Conc of Me-Cbl,"[2]; challenge 50 mg/mL, ethanol 0%, PG 0%, Day 0 reading",9410 µM
same,Conc of Me-Cbl,"[2]; challenge 50 mg/mL, ethanol 0%, PG 0%, Day 1",12860 µg/mL
same,Conc of Me-Cbl,"[2]; challenge 50 mg/mL, ethanol 0%, PG 0%, Day 3",12860 µg/mL
same,Conc of Me-Cbl,"[2]; challenge 50 mg/mL, ethanol 0%, PG 20%, Day 0",58220 µg/mL
same,Conc of Me-Cbl,"[2]; challenge 50 mg/mL, ethanol 0%, PG 20%, Day 0 reading",43310 µM
same,Conc of Me-Cbl,"[2]; challenge 50 mg/mL, ethanol 0%, PG 20%, Day 1",17990 µg/mL
same,Conc of Me-Cbl,"[2]; challenge 50 mg/mL, ethanol 0%, PG 20%, Day 3",17790 µg/mL
same,Conc of Me-Cbl,"[2]; challenge 50 mg/mL, ethanol 0%, PG 40%, Day 0",57210 µg/mL
same,Conc of Me-Cbl,"[2]; challenge 50 mg/mL, ethanol 0%, PG 40%, Day 0 reading",42560 µM
same,Conc of Me-Cbl,"[2]; challenge 50 mg/mL, ethanol 0%, PG 40%, Day 1",23210 µg/mL
same,Conc of Me-Cbl,"[2]; challenge 50 mg/mL, ethanol 0%, PG 40%, Day 3",22160 µg/mL
same,Conc of Me-Cbl,"[2]; challenge 50 mg/mL, ethanol 15%, PG 0%, Day 0",56610 µg/mL
same,Conc of Me-Cbl,"[2]; challenge 50 mg/mL, ethanol 15%, PG 0%, Day 0 reading",42110 µM
same,Conc of Me-Cbl,"[2]; challenge 50 mg/mL, ethanol 15%, PG 0%, Day 1",11930 µg/mL
same,Conc of Me-Cbl,"[2]; challenge 50 mg/mL, ethanol 15%, PG 0%, Day 3",11320 µg/mL
same,Conc of Me-Cbl,"[2]; challenge 50 mg/mL, ethanol 15%, PG 20%, Day 0",56610 µg/mL
same,Conc of Me-Cbl,"[2]; challenge 50 mg/mL, ethanol 15%, PG 20%, Day 0 reading",42110 µM
same,Conc of Me-Cbl,"[2]; challenge 50 mg/mL, ethanol 15%, PG 20%, Day 1",15490 µg/mL
same,Conc of Me-Cbl,"[2]; challenge 50 mg/mL, ethanol 15%, PG 20%, Day 3",15450 µg/mL
same,Conc of Me-Cbl,"[2]; challenge 50 mg/mL, ethanol 20%, PG 0%, Day 0",58020 µg/mL
same,Conc of Me-Cbl,"[2]; challenge 50 mg/mL, ethanol 20%, PG 0%, Day 0 reading",43160 µM
same,Conc of Me-Cbl,"[2]; challenge 50 mg/mL, ethanol 20%, PG 0%, Day 3",10350 µg/mL
same,Conc of Me-Cbl,"[2]; challenge 50 mg/mL, ethanol 20%, PG 40%, Day 1",51150 µg/mL
same,Conc of Me-Cbl,"[2]; challenge 50 mg/mL, ethanol 20%, PG 40%, Day 3",48120 µg/mL
